The NIST ThermoML archive (doi:10.1016/j.jct.2014.03.014)
Several values for one entry are separate records, joined by “and”; a condition that tells them apart may be missing. Equal entries are not always repeated. ± gives the expanded uncertainty stated by the source.

Conditions: Liquid, Closed cell (Static) method

FC(F)CC(F)(F)F [1,1,1,3,3-pentafluoropropane]
Conditions | vapor or sublimation pressure
293.15 K | 122.7 ± 1.1 kPa
295.08 K | 132.2 ± 1 kPa
295.57 K | 134.7 ± 1 kPa
296.57 K | 139.9 ± 1 kPa
297.57 K | 145.2 ± 1 kPa
298.57 K | 150.6 ± 1 kPa and 150.7 ± 1 kPa
298.58 K | 150.7 ± 1 kPa
299.61 K | 156.5 ± 1 kPa
300.61 K | 162.4 ± 1 kPa
301.62 K | 168.4 ± 1 kPa
302.63 K | 174.6 ± 1 kPa
303.15 K | 177.9 ± 1.2 kPa
303.64 K | 181 ± 1.1 kPa
304.64 K | 187.6 ± 1.1 kPa
305.65 K | 194.3 ± 1.1 kPa
306.66 K | 201.2 ± 1.1 kPa
307.67 K | 208.3 ± 1.1 kPa
308.68 K | 215.7 ± 1.1 kPa
309.7 K | 223.3 ± 1.1 kPa
310.72 K | 231.1 ± 1.1 kPa
311.74 K | 239.1 ± 1.1 kPa
313.15 K | 250.3 ± 1.3 kPa
313.71 K | 255.2 ± 1.1 kPa
315.74 K | 272.6 ± 1.1 kPa
317.76 K | 290.8 ± 1.1 kPa
318.78 K | 300.3 ± 1.1 kPa
319.77 K | 309.9 ± 1.1 kPa
321.71 K | 329.1 ± 1.2 kPa
323.15 K | 344 ± 1.6 kPa
323.73 K | 349.9 ± 1.2 kPa
325.71 K | 371.6 ± 1.2 kPa
327.68 K | 394 ± 1.2 kPa
329.67 K | 417.9 ± 1.2 kPa
330.68 K | 430.4 ± 1.3 kPa
331.7 K | 443.4 ± 1.3 kPa
333.71 K | 469.6 ± 1.3 kPa
335.73 K | 497.1 ± 1.3 kPa
337.74 K | 525.9 ± 1.4 kPa
338.75 K | 540.8 ± 1.4 kPa
339.77 K | 556.1 ± 1.4 kPa
341.82 K | 587.9 ± 1.4 kPa
343.82 K | 620.4 ± 1.5 kPa
343.88 K | 621 ± 2.4 kPa
345.87 K | 654.6 ± 1.5 kPa
347.86 K | 689.5 ± 1.6 kPa
348.87 K | 707.6 ± 1.6 kPa and 707.7 ± 1.6 kPa
349.86 K | 725.9 ± 1.6 kPa
350.86 K | 744.6 ± 1.6 kPa
351.87 K | 763.8 ± 1.7 kPa
352.87 K | 783.3 ± 1.7 kPa

CC(C)C [2-methylpropane]
Conditions | vapor or sublimation pressure [kPa]
293.15 K | 302.2 ± 1.3
293.58 K | 306.7 ± 1.1
295.58 K | 325.6 ± 1.1
297.58 K | 345.2 ± 1.1
299.59 K | 365.9 ± 1.1
301.61 K | 387.6 ± 1.2
303.15 K | 404.7 ± 1.5
303.62 K | 410.2 ± 1.2
305.63 K | 433.9 ± 1.2
307.64 K | 458.6 ± 1.2
309.65 K | 484.2 ± 1.2
311.66 K | 510.9 ± 1.2
313.15 K | 531.6 ± 1.8
313.69 K | 538.7 ± 1.3
315.7 K | 567.9 ± 1.3
317.73 K | 598.1 ± 1.3
319.72 K | 629 ± 1.4
321.75 K | 661.7 ± 1.4
323.15 K | 685.6 ± 2.2
323.82 K | 696.1 ± 1.4
325.77 K | 730.9 ± 1.5
327.73 K | 765.3 ± 1.5
329.74 K | 802.7 ± 1.5
331.72 K | 840.8 ± 1.6
333.71 K | 880.5 ± 1.6
335.74 K | 922.5 ± 1.7
337.79 K | 966.2 ± 1.7
339.85 K | 1011.5 ± 1.8
341.75 K | 1054.5 ± 1.8
343.78 K | 1102.5 ± 1.9
343.88 K | 1105.1 ± 3.5
345.86 K | 1153.1 ± 1.9
347.86 K | 1204.4 ± 2
349.9 K | 1256.3 ± 2.1
351.91 K | 1309.8 ± 2.1
353.91 K | 1365.1 ± 2.2
